From paper PMC3319098 (Journal of the American Chemical Society, 2012)

Experiments:
[1] = target: T1, bovine carbonic anhydrase (BCA) (Bos taurus, UniProt P00921); details: resin-bound control ligand; cited from earlier work
[2] = target: T1, bovine carbonic anhydrase (BCA); assay: MagLev measurement of BCA binding to ligand-functionalized PEGA beads; details: incubation with 0.33 mM BCA for 7 days; standard levitation buffer

T1 sequence (P00921 whole entry): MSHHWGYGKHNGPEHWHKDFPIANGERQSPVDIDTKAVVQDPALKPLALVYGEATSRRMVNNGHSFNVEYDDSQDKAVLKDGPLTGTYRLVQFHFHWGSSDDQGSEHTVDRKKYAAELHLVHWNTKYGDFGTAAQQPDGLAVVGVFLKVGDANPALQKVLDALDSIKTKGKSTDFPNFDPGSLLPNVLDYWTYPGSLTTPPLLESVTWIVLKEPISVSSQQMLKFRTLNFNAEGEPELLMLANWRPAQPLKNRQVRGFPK

CN(C)S(=O)(=O)c1ccc(C(=O)O)cc1 [sulfonamide 2, 4-dimethylsulfamoylbenzoic acid]
association with BCA [1]: should not associate measurably | decrease in the levitation height of functionalized beads [2]: < 0.1 mm
